# Measured values from patent publication US20160038468A1 (priority 2013, published 2016).
# Like-named read-outs stand apart in the source and are kept apart here.
# What was measured:
# Gardnerella vaginalis = test: Agar dilution MIC (CLSI), Gardnerella vaginalis vaginal isolates; type: cell-based; details: for Number of strains with indicated MIC: 100 samples
# Mobiluncus spp = test: Agar dilution MIC (CLSI), Mobiluncus spp vaginal isolate; type: cell-based; details: read-out: Minimal Inhibitory Concentration (MIC)
# Prevotella bivia = test: Agar dilution MIC (CLSI), Prevotella bivia vaginal isolates; type: cell-based; details: for MIC: read-out: Minimal Inhibitory Concentration (MIC)
# Anaerococcus tetradius = test: Agar dilution MIC (CLSI), Anaerococcus tetradius vaginal isolates; type: cell-based; details: for MIC: read-out: Minimal Inhibitory Concentration (MIC); for Number of strains with indicated MIC: 21 samples
# Finegoldia magna = test: Agar dilution MIC (CLSI), Finegoldia magna vaginal isolates; type: cell-based; details: for MIC: read-out: Minimal Inhibitory Concentration (MIC); for Number of strains with indicated MIC: 20 samples
# [1] = test system: Megasphaera-like bacteria; test: Agar dilution MIC (CLSI), Megasphaera-like bacteria vaginal isolates; type: cell-based; details: for MIC: read-out: Minimal Inhibitory Concentration (MIC); for Number of strains with indicated MIC: 25 samples
# [2] = test system: Clostridium difficile, ATCC 700057; details: agar dilution testing, from CLSI Table 5; cited from earlier work
# Lactobacilli = details: pathogens: Gardnerella vaginalis, Mobiluncus spp, Bacteroides bivius-disiens; cited from earlier work
# vaginal infections = details: daily dosage less than 100 mg/day; cited from earlier work
# [3] = Gardnerella vaginalis, # tested 107
# [4] = Anaerococcus tetradius, # tested 21
structure (smiles),measurement,setting,value
CO[C@H]1/C=C/O[C@@]2(C)Oc3c(C)c(O)c4c(O)c(c5c(nc6cc(C)ccn65)c4c3C2=O)NC(=O)/C(C)=C\C=C\[C@H](C)[C@H](O)[C@@H](C)[C@@H](O)[C@@H](C)[C@H](OC(C)=O)[C@@H]1C [Rifaximin],share of G vaginalis strains against which the agent had activity,Gardnerella vaginalis,~90%
same,MIC50,Gardnerella vaginalis; [3],2 µg/mL
same,MIC90,Gardnerella vaginalis; [3],> 128 µg/mL
same,Number of strains with indicated MIC,Gardnerella vaginalis; MIC 8 μg/ml,3
same,Number of strains with indicated MIC,Gardnerella vaginalis; MIC >[…],11
same,MIC,Mobiluncus spp,0.03 µg/mL
same,MIC Range,Prevotella bivia; # tested 34,0.125 to 1 µg/mL
same,MIC,"Prevotella bivia; Prevotella bivia, isolate 601096 25",0.125 µg/mL
same,MIC,"Prevotella bivia; Prevotella bivia, isolate 601166 M",0.125 µg/mL
same,MIC,"Prevotella bivia; Prevotella bivia, isolate 601202 21",0.5 µg/mL
same,MIC,"Prevotella bivia; Prevotella bivia, isolate 601203 5",0.125 µg/mL
same,MIC,"Prevotella bivia; Prevotella bivia, isolate 601209 A1",0.125 µg/mL
same,MIC,"Prevotella bivia; Prevotella bivia, isolate 601212 9",0.125 µg/mL
same,MIC,"Prevotella bivia; Prevotella bivia, isolate 601213 9A",0.25 µg/mL
same,MIC,"Prevotella bivia; Prevotella bivia, isolate 601214 B",0.25 µg/mL
same,MIC,"Prevotella bivia; Prevotella bivia, isolate 601241 13",0.125 µg/mL
same,MIC,"Prevotella bivia; Prevotella bivia, isolate 601243 15",0.125 µg/mL
same,MIC,"Prevotella bivia; Prevotella bivia, isolate 601255 10",0.25 µg/mL
same,MIC,"Prevotella bivia; Prevotella bivia, isolate 601261 C",0.25 µg/mL
same,MIC,"Prevotella bivia; Prevotella bivia, isolate 601283 20",0.25 µg/mL
same,MIC,"Prevotella bivia; Prevotella bivia, isolate 601285 14",0.125 µg/mL
same,MIC,"Prevotella bivia; Prevotella bivia, isolate 601293 22",0.25 µg/mL
same,MIC,"Prevotella bivia; Prevotella bivia, isolate 601305 H",0.125 µg/mL
same,MIC,"Prevotella bivia; Prevotella bivia, isolate 601340 31",0.25 µg/mL
same,MIC,"Prevotella bivia; Prevotella bivia, isolate 601355 B",1 µg/mL
same,MIC,"Prevotella bivia; Prevotella bivia, isolate 601367 M",0.5 µg/mL
same,MIC,"Prevotella bivia; Prevotella bivia, isolate 601374 A1",0.25 µg/mL
same,MIC,"Prevotella bivia; Prevotella bivia, isolate 601378 B",0.25 µg/mL
same,MIC,"Prevotella bivia; Prevotella bivia, isolate 601379 19",0.25 µg/mL
same,MIC,"Prevotella bivia; Prevotella bivia, isolate 601388 T",0.25 µg/mL
same,MIC,"Prevotella bivia; Prevotella bivia, isolate 601389 10",0.25 µg/mL
same,MIC,"Prevotella bivia; Prevotella bivia, isolate 601389 J",0.25 µg/mL
same,MIC,"Prevotella bivia; Prevotella bivia, isolate 601392 14",0.125 µg/mL
same,MIC,"Prevotella bivia; Prevotella bivia, isolate 601409 V",0.25 µg/mL
same,MIC,"Prevotella bivia; Prevotella bivia, isolate 601410 12",0.25 µg/mL
same,MIC,"Prevotella bivia; Prevotella bivia, isolate 601429 1",0.25 µg/mL
same,MIC,"Prevotella bivia; Prevotella bivia, isolate 601433 19",0.25 µg/mL
same,MIC,"Prevotella bivia; Prevotella bivia, isolate 601449 E",0.5 µg/mL
same,MIC,"Prevotella bivia; Prevotella bivia, isolate 601453 A",0.25 µg/mL
same,MIC,"Prevotella bivia; Prevotella bivia, isolate 601455 D1",0.25 µg/mL
same,MIC,"Prevotella bivia; Prevotella bivia, isolate 601458 16",0.25 µg/mL
same,MIC50,"Prevotella bivia; Prevotella bivia, # tested 34",0.25 µg/mL
same,MIC90,"Prevotella bivia; Prevotella bivia, # tested 34",0.5 µg/mL
same,Susceptible,"Prevotella bivia; number (%) of isolates, # tested 34",34 (100) μg/ml
same,MIC Range,Anaerococcus tetradius; # tested 21,0.00375 to 0.125 µg/mL
same,MIC,"Anaerococcus tetradius; Anaerococcus tetradius, isolate 601098V T",0.06 µg/mL
same,MIC,"Anaerococcus tetradius; Anaerococcus tetradius, isolate 601103V 21",0.06 µg/mL
same,MIC,"Anaerococcus tetradius; Anaerococcus tetradius, isolate 601175V I",0.125 µg/mL
same,MIC,"Anaerococcus tetradius; Anaerococcus tetradius, isolate 601202V 11",0.06 µg/mL
same,MIC,"Anaerococcus tetradius; Anaerococcus tetradius, isolate 601212V 14",0.06 µg/mL
same,MIC,"Anaerococcus tetradius; Anaerococcus tetradius, isolate 601221V 12",0.00375 µg/mL
same,MIC,"Anaerococcus tetradius; Anaerococcus tetradius, isolate 601222V 15",0.06 µg/mL
same,MIC,"Anaerococcus tetradius; Anaerococcus tetradius, isolate 601242V 17",0.06 µg/mL
same,MIC,"Anaerococcus tetradius; Anaerococcus tetradius, isolate 601256V 9",0.06 µg/mL
same,MIC,"Anaerococcus tetradius; Anaerococcus tetradius, isolate 601287V V",0.06 µg/mL
same,MIC,"Anaerococcus tetradius; Anaerococcus tetradius, isolate 601305V J",0.015 µg/mL
same,MIC,"Anaerococcus tetradius; Anaerococcus tetradius, isolate 601326V H",0.06 µg/mL
same,MIC,"Anaerococcus tetradius; Anaerococcus tetradius, isolate 601340V 25",0.06 µg/mL
same,MIC,"Anaerococcus tetradius; Anaerococcus tetradius, isolate 601342V N",0.06 µg/mL
same,MIC,"Anaerococcus tetradius; Anaerococcus tetradius, isolate 601368V 42",0.06 µg/mL
same,MIC,"Anaerococcus tetradius; Anaerococcus tetradius, isolate 601369V 12",0.03 µg/mL
same,MIC,"Anaerococcus tetradius; Anaerococcus tetradius, isolate 601379V 25",0.06 µg/mL
same,MIC,"Anaerococcus tetradius; Anaerococcus tetradius, isolate 601401V T",0.06 µg/mL
same,MIC,"Anaerococcus tetradius; Anaerococcus tetradius, isolate 601429V 15",0.015 µg/mL
same,MIC,"Anaerococcus tetradius; Anaerococcus tetradius, isolate 601450V 22",0.06 µg/mL
same,MIC,"Anaerococcus tetradius; Anaerococcus tetradius, isolate 602375V 22",0.015 µg/mL
same,MIC50,Anaerococcus tetradius; [4],0.06 µg/mL
same,MIC90,Anaerococcus tetradius; [4],0.06 µg/mL
same,Number of strains with indicated MIC,Anaerococcus tetradius; MIC 0.00375 μg/ml,1
same,Number of strains with indicated MIC,Anaerococcus tetradius; MIC 0.015 μg/ml,3
same,Number of strains with indicated MIC,Anaerococcus tetradius; MIC 0.03 μg/ml,1
same,Number of strains with indicated MIC,Anaerococcus tetradius; MIC 0.06 μg/ml,15
same,Number of strains with indicated MIC,Anaerococcus tetradius; MIC […],1
same,MIC Range,Finegoldia magna; # tested 20,0.125 to 16 µg/mL
same,MIC,"Finegoldia magna; Finegoldia magna, isolate 301303V D",4 µg/mL
same,MIC,"Finegoldia magna; Finegoldia magna, isolate 601205V 39",4 µg/mL
same,MIC,"Finegoldia magna; Finegoldia magna, isolate 601214V F",8 µg/mL
same,MIC,"Finegoldia magna; Finegoldia magna, isolate 601275V c",0.125 µg/mL
same,MIC,"Finegoldia magna; Finegoldia magna, isolate 601276V 23",4 µg/mL
same,MIC,"Finegoldia magna; Finegoldia magna, isolate 601283V 14",4 µg/mL
same,MIC,"Finegoldia magna; Finegoldia magna, isolate 601293V 27",4 µg/mL
same,MIC,"Finegoldia magna; Finegoldia magna, isolate 601295V 25",4 µg/mL
same,MIC,"Finegoldia magna; Finegoldia magna, isolate 601298V 30",4 µg/mL
same,MIC,"Finegoldia magna; Finegoldia magna, isolate 601308V 24",2 µg/mL
same,MIC,"Finegoldia magna; Finegoldia magna, isolate 601315V 17",8 µg/mL
same,MIC,"Finegoldia magna; Finegoldia magna, isolate 601315V 17A",8 µg/mL
same,MIC,"Finegoldia magna; Finegoldia magna, isolate 601320V 24",16 µg/mL
same,MIC,"Finegoldia magna; Finegoldia magna, isolate 601323V K",4 µg/mL
same,MIC,"Finegoldia magna; Finegoldia magna, isolate 601330V c",16 µg/mL
same,MIC,"Finegoldia magna; Finegoldia magna, isolate 601335V c1",4 µg/mL
same,MIC,"Finegoldia magna; Finegoldia magna, isolate 601340V 27",8 µg/mL
same,MIC,"Finegoldia magna; Finegoldia magna, isolate 601359V c",2 µg/mL
same,MIC,"Finegoldia magna; Finegoldia magna, isolate 601363V 6",0.25 µg/mL
same,MIC,"Finegoldia magna; Finegoldia magna, isolate 601367V c",16 µg/mL
same,MIC50,"Finegoldia magna; Finegoldia magna, # tested 20",4 µg/mL
same,MIC90,"Finegoldia magna; Finegoldia magna, # tested 20",16 µg/mL
same,Number of strains with indicated MIC,Finegoldia magna; MIC 8 μg/ml,4
same,Number of strains with indicated MIC,Finegoldia magna; MIC 16 μg/ml,3
same,Number of strains with indicated MIC,Finegoldia magna; MIC […],1
same,Susceptible,"Finegoldia magna; number (%) of isolates, # tested 20",20 (100) μg/ml
same,MIC,"[1]; 427510 h, isolate 427507 H",0.015 µg/mL
same,MIC50,[1]; # tested 25,0.015 µg/mL
same,MIC90,[1]; # tested 25,0.015 µg/mL
same,MIC Range,[1]; # tested 25,0.0075 to 0.015 µg/mL
same,Number of strains with indicated MIC,[1]; MIC 0.0075 μg/ml,3
same,Number of strains with indicated MIC,[1]; MIC 0.015 μg/ml,22
same,MIC,[1]; isolate 426749 T,0.0075 µg/mL
same,MIC,[1]; isolate 426766 Q,0.015 µg/mL
same,MIC,[1]; isolate 426788 8a,0.015 µg/mL
same,MIC,[1]; isolate 426788 C,0.015 µg/mL
same,MIC,[1]; isolate 427470 10,0.015 µg/mL
same,MIC,[1]; isolate 427490 2u,0.015 µg/mL
same,MIC,[1]; isolate 427509 A,0.015 µg/mL
same,MIC,[1]; isolate 427522 8,0.015 µg/mL
same,MIC,[1]; isolate 600770 O,0.015 µg/mL
same,MIC,[1]; isolate 600790 N,0.015 µg/mL
same,MIC,[1]; isolate 600796 V,0.015 µg/mL
same,MIC,[1]; isolate 600831 9,0.015 µg/mL
same,MIC,[1]; isolate 600837 18,0.015 µg/mL
same,MIC,[1]; isolate 600861 P,0.015 µg/mL
same,MIC,[1]; isolate 602236 E3,0.007 µg/mL
same,MIC,[1]; isolate 602241 D,0.015 µg/mL
same,MIC,[1]; isolate 602241 F,0.015 µg/mL
same,MIC,[1]; isolate 602270 A,0.015 µg/mL
same,MIC,[1]; isolate 602282 I,0.015 µg/mL
same,MIC,[1]; isolate 602288 16,0.015 µg/mL
same,MIC,[1]; isolate 602302 22,0.015 µg/mL
same,MIC,[1]; isolate 602305 I,0.015 µg/mL
same,MIC,[1]; isolate 602324 8,0.0075 µg/mL
same,MIC,[1]; isolate 602672 12A,0.015 µg/mL
same,Acceptable Range of MIC for control strain,[2],0.0039 to 0.0156 µg/mL
same,inhibitory action (MIC50 and MIC90) against Lactobacilli compared with action against pathogenic bacteria,Lactobacilli,"equal to, or even higher than"
same,efficacy in the treatment of vaginal infections,vaginal infections,efficacious
